Laboratory results as given in patent publication US10336808B2, “MHC peptide complexes and uses thereof in infectious diseases” (priority 2007, dated 2019).

Legend:
Assay type in all cases: cell-based, human
[1] = test system: T2 cells loaded with peptide; assay: 51-Cr release assay of expanded T cell clones
Experimental: The ten expanded T cell clones isolated by Flow sorting as shown in example 39 were tested for their specificity by analysis in a standard 51-Cr release assay. […] One of these BclX(L)173-182 specific CD8 T-cell clones [Clone 9] were expanded for further analyses.

[2] = test system: Bcl-X(L)-specific, CD8 positive T cells in PBL; assay: ELISPOT ex vivo with BclX(L) peptide; conditions: PBL from a breast cancer patient, with vs without peptide, FIG. 15
Experimental: In example 22 the best binding BclX(L) 10-mer peptide for HLA-A*0201 was identified to be […] (SEQ ID NO.: 46196). This peptide has then been tested in ELISPOT to see if it were able to detect the presence Bcl-X(L)-specific, CD8 positive T cells in PBL (Peripheral Blood Lymphocytes) from a breast cancer patient. PBL from a breast cancer patient was analyzed by ELISPOT ex vivo either with or without the Bcl-X(L)173-182 peptide ([…] (SEQ ID NO.: 46196)), […] in doublets. The number of spots was counted using the Immunospot Series 2.0 Analyzer (CTL Analysers).

[3] = test system: T2 cells pulsed with peptide; assay: 51Cr-release assays with Bcl-X(L)173-182 specific clone 9
Excerpt: The Bcl-X(L)173-182 specific clone 9 was expanded for additional 2 weeks before the cytotoxic potential was examined further in 51Cr-release assays.

[4] = CD8 T-cell clones 8, 9, 10, 11 and 12, FIG. 17

**Q.** Which “lysis of peptide pulsed T2 cells” value [1, 4] does the source give for “GLQHWVPEL [BA4697-105, irrelevant peptide, reference compound]” here?
**A.** without killing

**Q.** YLNDHLEPWI was tested. Which “ELISPOT detection of Bcl-X(L)-specific CD8 positive T cells (number of spots)” value [2] did it give?
**A.** clearly shows the presence of BclX(L) specific T-cells

**Q.** And the “cell lysis of T2 cells pulsed with different concentrations of peptide” value ([3]; clone 9, E:T ratio 1:1, FIG. 18)?
**A.** significant even at low concentrations

**Q.** What about the “cell lysis of peptide pulsed T2 cells” value ([3]; clone 9, three E:T ratios, vs irrelevant peptide, FIG. 18) of the same sequence?
**A.** necessary to get killing of the target cell

**Q.** What about the “lysis of peptide pulsed T2 cells” value [1, 4] of the same sequence?
**A.** effectively lysed

**Q.** And the “lysis of peptide pulsed T2 cells” value ([1]; expanded clones 7, 13, 15, 17 and 18)?
**A.** did not show specific lysis
